# Experiments:
# [1] = biological target: T1, recombinant human PERK protein (Homo sapiens, UniProt Q9NZJ5); assay: PKR-like endoplasmic reticulum kinase (PERK) inhibitory capacity, 33P-ATP filter assay; type: biochemical; conditions: 15 uM [gamma-33P-ATP], 40 minutes, room temperature
# T1 sequence (Q9NZJ5 30-1116): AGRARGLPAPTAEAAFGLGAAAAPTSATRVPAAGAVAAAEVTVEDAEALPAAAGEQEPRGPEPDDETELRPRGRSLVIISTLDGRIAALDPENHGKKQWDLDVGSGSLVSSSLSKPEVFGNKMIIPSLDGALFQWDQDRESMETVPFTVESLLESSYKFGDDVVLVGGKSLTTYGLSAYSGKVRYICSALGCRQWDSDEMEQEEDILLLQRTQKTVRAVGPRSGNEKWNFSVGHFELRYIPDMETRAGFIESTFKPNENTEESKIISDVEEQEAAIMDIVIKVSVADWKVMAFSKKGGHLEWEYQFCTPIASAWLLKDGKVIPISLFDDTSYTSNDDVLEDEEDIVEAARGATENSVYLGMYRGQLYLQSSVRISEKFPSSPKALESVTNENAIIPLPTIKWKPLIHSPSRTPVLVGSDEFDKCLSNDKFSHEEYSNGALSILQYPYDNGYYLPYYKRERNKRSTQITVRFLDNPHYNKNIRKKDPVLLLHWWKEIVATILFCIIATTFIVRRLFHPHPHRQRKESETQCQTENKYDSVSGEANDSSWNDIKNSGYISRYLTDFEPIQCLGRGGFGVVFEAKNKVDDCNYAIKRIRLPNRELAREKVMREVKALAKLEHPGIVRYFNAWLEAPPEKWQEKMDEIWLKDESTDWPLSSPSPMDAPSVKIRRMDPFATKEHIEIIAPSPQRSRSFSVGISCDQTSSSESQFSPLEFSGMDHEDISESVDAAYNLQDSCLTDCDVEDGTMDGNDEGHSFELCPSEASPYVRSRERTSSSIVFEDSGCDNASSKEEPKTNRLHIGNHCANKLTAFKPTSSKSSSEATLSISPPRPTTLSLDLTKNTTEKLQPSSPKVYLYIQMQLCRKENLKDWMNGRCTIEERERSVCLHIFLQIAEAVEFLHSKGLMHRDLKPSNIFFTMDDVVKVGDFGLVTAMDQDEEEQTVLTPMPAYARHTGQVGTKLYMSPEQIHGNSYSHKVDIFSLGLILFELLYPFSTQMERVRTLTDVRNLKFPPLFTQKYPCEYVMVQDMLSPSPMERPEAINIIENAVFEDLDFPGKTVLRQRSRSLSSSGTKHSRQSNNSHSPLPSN
# Protocol: <Experimental Example 1> Evaluation of PKR-Like Endoplasmic Reticulum Kinase (PERK) Inhibitory Capacity
# A recombinant human PERK protein was mixed with the compound in a reaction solution (8 mM MOPS pH 7.0, 0.2 mM EDTA, 300 uM RSRSRSRSRSRSRSR, 10 mM Magnesium acetate, 15 uM [gamma-33P-ATP]) and reacted at room temperature for 40 minutes. Then, the reaction was terminated by adding phosphoric acid (0.5%) to the reaction mixture, and 10 ul of the reaction solution was dropped onto a P30 filter. The filter was washed four times in a 0.425% phosphoric acid solution for 4 minutes, then washed once more in methanol, dried, and the PERK activity was measured by scintillation counting. […] The compound was diluted by 1/3 from the highest concentration of 1 uM and treated with a total of 9 concentrations to evaluate the degree of inhibition.
# [2] = biological target: recombinant human GCN2 protein (Homo sapiens, UniProt Q9P2K8); assay: General control nonderepressible 2 (GCN2) inhibitory capacity, 33P-ATP filter assay; type: biochemical; conditions: recombinant human GCN2, 70 uM [gamma-33P-ATP], 40 minutes, room temperature
# Protocol: <Experimental Example 2> Evaluation of General Control Nonderepressible 2 (GCN2) Inhibitory Capacity
# A recombinant human GCN2 protein was mixed with the compound in a reaction solution (20 mM Tris/HCl pH8.5, 0.2 mM EDTA, 0.1% Tween, 100 mM NaCl, 300 μM RSRSRSRSRSRSRSR, 10 mM Magnesium acetate, 70 uM [gamma-33P-ATP]) and reacted at room temperature for 40 minutes. Then, the reaction was terminated by adding phosphoric acid (0.5%) to the reaction mixture, and 10 ul of the reaction solution was dropped onto a P30 filter. The filter was washed four times in a 0.425% phosphoric acid solution for 4 minutes, then washed once more in methanol, dried, and the GCN2 activity was measured by scintillation counting. […] The compound was diluted by 1/3 from the highest concentration of 1 uM and treated with a total of 9 concentrations to evaluate the degree of inhibition.
# Chain of recombinant human GCN2 protein (Q9P2K8 whole entry): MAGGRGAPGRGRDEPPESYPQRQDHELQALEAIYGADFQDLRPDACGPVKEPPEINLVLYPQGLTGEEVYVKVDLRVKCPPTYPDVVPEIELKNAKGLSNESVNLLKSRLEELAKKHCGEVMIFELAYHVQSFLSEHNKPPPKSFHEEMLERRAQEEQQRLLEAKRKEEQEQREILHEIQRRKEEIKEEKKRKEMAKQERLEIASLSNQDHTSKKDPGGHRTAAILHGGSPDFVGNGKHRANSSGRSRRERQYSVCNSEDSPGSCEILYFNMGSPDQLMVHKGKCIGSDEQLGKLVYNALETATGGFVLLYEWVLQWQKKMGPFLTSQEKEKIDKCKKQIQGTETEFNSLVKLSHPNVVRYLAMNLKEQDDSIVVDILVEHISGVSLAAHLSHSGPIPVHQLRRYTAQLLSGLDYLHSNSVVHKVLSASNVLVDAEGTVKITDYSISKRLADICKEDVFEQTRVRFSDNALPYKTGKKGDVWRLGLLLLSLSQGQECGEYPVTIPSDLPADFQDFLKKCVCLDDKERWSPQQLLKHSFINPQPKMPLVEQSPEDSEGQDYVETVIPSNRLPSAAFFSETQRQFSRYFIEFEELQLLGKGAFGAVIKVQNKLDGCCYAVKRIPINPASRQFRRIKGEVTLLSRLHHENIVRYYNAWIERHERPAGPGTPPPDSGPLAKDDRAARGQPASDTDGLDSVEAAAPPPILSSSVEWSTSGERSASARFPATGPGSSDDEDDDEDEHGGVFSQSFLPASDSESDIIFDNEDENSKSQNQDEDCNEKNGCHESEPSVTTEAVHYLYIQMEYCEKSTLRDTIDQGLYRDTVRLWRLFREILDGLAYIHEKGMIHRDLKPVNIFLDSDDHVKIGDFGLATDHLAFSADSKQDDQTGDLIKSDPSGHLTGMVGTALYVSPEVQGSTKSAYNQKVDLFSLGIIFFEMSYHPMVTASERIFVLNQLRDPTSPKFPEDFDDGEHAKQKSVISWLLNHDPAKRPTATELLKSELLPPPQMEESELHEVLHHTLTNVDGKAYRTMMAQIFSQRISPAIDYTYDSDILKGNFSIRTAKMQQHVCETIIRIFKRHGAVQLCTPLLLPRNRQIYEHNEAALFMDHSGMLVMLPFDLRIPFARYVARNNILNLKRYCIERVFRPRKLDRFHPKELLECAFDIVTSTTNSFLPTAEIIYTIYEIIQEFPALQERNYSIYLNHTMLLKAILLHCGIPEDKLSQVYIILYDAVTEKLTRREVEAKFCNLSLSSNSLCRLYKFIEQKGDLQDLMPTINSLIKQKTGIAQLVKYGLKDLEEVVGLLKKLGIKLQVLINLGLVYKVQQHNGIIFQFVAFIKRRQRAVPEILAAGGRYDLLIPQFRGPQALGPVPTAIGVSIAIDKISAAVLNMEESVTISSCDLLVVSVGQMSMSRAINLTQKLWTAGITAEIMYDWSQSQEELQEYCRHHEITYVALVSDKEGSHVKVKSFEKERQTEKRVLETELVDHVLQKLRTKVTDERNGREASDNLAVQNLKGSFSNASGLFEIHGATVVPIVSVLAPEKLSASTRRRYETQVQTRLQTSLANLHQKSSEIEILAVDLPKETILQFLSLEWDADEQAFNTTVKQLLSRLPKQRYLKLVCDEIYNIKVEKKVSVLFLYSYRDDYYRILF
SMILES,IC50 [1],IC50 [2]
"Cc1nn(C)c(C(F)(F)F)c1S(=O)(=O)Nc1ccc(F)c(-c2cc3cnc(N)nc3n(C)c2=O)c1F [Example 1, N-(3-(2-amino-8-methyl-7-oxo-7,8-dihydropyrido[2,3-d]pyrimidin-6-yl)-2,4-difluorophenyl)-1,3-dimethyl-5-(trifluoromethyl)-1H-pyrazole-4-sulfonamide]",0.3 to 1 µM,0.1 to 0.3 µM
"Cc1nn(C)c(Cl)c1S(=O)(=O)Nc1ccc(F)c(-c2cc3cnc(N)nc3n(C)c2=O)c1F [Example 2, N-(3-(2-amino-8-methyl-7-oxo-7,8-dihydropyrido[2,3-d]pyrimidin-6-yl)-2,4-difluorophenyl)-5-chloro-1,3-dimethyl-1H-pyrazole-4-sulfonamide]",0.3 to 1 µM,> 1 µM
"Cc1nn(C)c(C)c1S(=O)(=O)Nc1ccc(F)c(-c2cc3cnc(N)nc3n(C)c2=O)c1F [Example 3, N-(3-(2-amino-8-methyl-7-oxo-7,8-dihydropyrido[2,3-d]pyrimidin-6-yl)-2,4-difluorophenyl)-1,3,5-trimethyl-1H-pyrazole-4-sulfonamide]",> 1 µM,0.3 to 1 µM
"Cc1n[nH]c(C)c1S(=O)(=O)Nc1ccc(F)c(-c2cc3cnc(N)nc3n(C)c2=O)c1F [Example 5, N-(3-(2-amino-8-methyl-7-oxo-7,8-dihydropyrido[2,3-d]pyrimidin-6-yl)-2,4-difluorophenyl)-3,5-dimethyl-1H-pyrazole-4-sulfonamide]",> 1 µM,> 1 µM
"Cn1c(=O)c(-c2c(F)ccc(NS(=O)(=O)c3ccc(Cl)nc3)c2F)cc2cnc(N)nc21 [Example 6, N-(3-(2-amino-8-methyl-7-oxo-7,8-dihydropyrido[2,3-d]pyrimidin-6-yl)-2,4-difluorophenyl)-6-chloropyridine-3-sulfonamide]",> 1 µM,> 1 µM
"Cc1nn(C(F)F)c(C)c1S(=O)(=O)Nc1ccc(F)c(-c2cc3cnc(N)nc3n(C)c2=O)c1F [Example 8, N-(3-(2-amino-8-methyl-7-oxo-7,8-dihydropyrido[2,3-d]pyrimidin-6-yl)-2,4-difluorophenyl)-1-(difluoromethyl)-3,5-dimethyl-1H-pyrazole-4-sulfonamide]",> 1 µM,> 1 µM
"Cc1c(S(=O)(=O)Nc2ccc(F)c(-c3cc4cnc(N)nc4n(C)c3=O)c2F)c(Cl)nn1C [Example 9, N-(3-(2-amino-8-methyl-7-oxo-7,8-dihydropyrido[2,3-d]pyrimidin-6-yl)-2,4-difluorophenyl)-3-chloro-1,5-dimethyl-1H-pyrazole-4-sulfonamide]",> 1 µM,0.3 to 1 µM
"Cc1c(S(=O)(=O)Nc2ccc(F)c(-c3cc4cnc(N)nc4n(C)c3=O)c2F)c(CO)nn1C [Example 10, N-(3-(2-amino-8-methyl-7-oxo-7,8-dihydropyrido[2,3-d]pyrimidin-6-yl)-2,4-difluorophenyl)-3-(hydroxymethyl)-1,5-dimethyl-1H-pyrazole-4-sulfonamide]",> 1 µM,> 1 µM
"Cc1noc(C)c1S(=O)(=O)Nc1ccc(F)c(-c2cc3cnc(N)nc3n(C)c2=O)c1F [Example 13, N-(3-(2-amino-8-methyl-7-oxo-7,8-dihydropyrido[2,3-d]pyrimidin-6-yl)-2,4-difluorophenyl)-3,5-dimethylisoxazole-4-sulfonamide]",0.3 to 1 µM,0.1 to 0.3 µM
"Cn1cc(S(=O)(=O)Nc2ccc(F)c(-c3cc4cnc(N)nc4n(C)c3=O)c2F)c(C(F)(F)F)n1 [Example 17, N-(3-(2-amino-8-methyl-7-oxo-7,8-dihydropyrido[2,3-d]pyrimidin-6-yl)-2,4-difluorophenyl)-1-methyl-3-(trifluoromethyl)-1H-pyrazole-4-sulfonamide]",0.1 to 0.3 µM,0.3 to 1 µM
"CNc1ncc2cc(-c3c(F)ccc(NS(=O)(=O)c4cc(Cl)ccc4Cl)c3F)c(=O)n(C)c2n1 [Example 20, 2,5-dichloro-N-(2,4-difluoro-3-(8-methyl-2-(methylamino)-7-oxo-7,8-dihydropyrido[2,3-d]pyrimidin-6-yl)phenyl)benzenesulfonamide]",> 1 µM,0.1 to 0.3 µM

# Second part, the compound after the results:
IC50 [1],IC50 [2],SMILES
< 0.1 µM,> 1 µM,"COc1ncc(Cl)cc1S(=O)(=O)Nc1ccc(F)c(-c2cc3cnc(N)nc3n(C)c2=O)c1F [Example 4, N-(3-(2-amino-8-methyl-7-oxo-7,8-dihydropyrido[2,3-d]pyrimidin-6-yl)-2,4-difluorophenyl)-5-chloro-2-methoxypyridine-3-sulfonamide]"
< 0.1 µM,0.1 to 0.3 µM,"Cn1ccc2c(S(=O)(=O)Nc3ccc(F)c(-c4cc5cnc(N)nc5n(C)c4=O)c3F)cccc21 [Example 7, N-(3-(2-amino-8-methyl-7-oxo-7,8-dihydropyrido[2,3-d]pyrimidin-6-yl)-2,4-difluorophenyl)-1-methyl-1H-indole-4-sulfonamide]"
0.1 to 0.3 µM,0.1 to 0.3 µM,"Cn1c(=O)c(-c2c(F)ccc(NS(=O)(=O)c3cccnc3Cl)c2F)cc2cnc(N)nc21 [Example 11, N-(3-(2-amino-8-methyl-7-oxo-7,8-dihydropyrido[2,3-d]pyrimidin-6-yl)-2,4-difluorophenyl)-2-chloropyridine-3-sulfonamide]"
< 0.1 µM,0.1 to 0.3 µM,"Cn1c(=O)c(-c2c(F)ccc(NS(=O)(=O)c3cc(F)ccc3F)c2F)cc2cnc(N)nc21 [Example 12, N-(3-(2-amino-8-methyl-7-oxo-7,8-dihydropyrido[2,3-d]pyrimidin-6-yl)-2,4-difluorophenyl)-2,5-difluorobenzene sulfonamide]"
< 0.1 µM,< 0.1 µM,"Cn1c(=O)c(-c2c(F)ccc(NS(=O)(=O)c3cc(Cl)ccc3Cl)c2F)cc2cnc(N)nc21 [Example 14, N-(3-(2-amino-8-methyl-7-oxo-7,8-dihydropyrido[2,3-d]pyrimidin-6-yl)-2,4-difluorophenyl)-2,5-dichlorobenzenesulfonamide]"
0.1 to 0.3 µM,0.3 to 1 µM,"Cn1c(=O)c(-c2c(F)ccc(NS(=O)(=O)c3c(Cl)nc4sccn34)c2F)cc2cnc(N)nc21 [Example 15, N-(3-(2-amino-8-methyl-7-oxo-7,8-dihydropyrido[2,3-d]pyrimidin-6-yl)-2,4-difluorophenyl)-6-chloroimidazo[2,1-b]thiazole-5-sulfonamide]"
< 0.1 µM,0.1 to 0.3 µM,"Cn1c(=O)c(-c2c(F)ccc(NS(=O)(=O)c3cccc4ccccc34)c2F)cc2cnc(N)nc21 [Example 16, N-(3-(2-amino-8-methyl-7-oxo-7,8-dihydropyrido[2,3-d]pyrimidin-6-yl)-2,4-difluorophenyl)naphthalene-1-sulfonamide]"
< 0.1 µM,0.1 to 0.3 µM,"Cn1c(=O)c(-c2c(F)ccc(NS(=O)(=O)c3cc(C(F)(F)F)ccc3Cl)c2F)cc2cnc(N)nc21 [Example 18, N-(3-(2-amino-8-methyl-7-oxo-7,8-dihydropyrido[2,3-d]pyrimidin-6-yl)-2,4-difluorophenyl)-2-chloro-5-(trifluoromethyl)benzenesulfonamide]"
< 0.1 µM,< 0.1 µM,"Cn1c(=O)c(-c2c(F)ccc(NS(=O)(=O)c3ccc(Cl)s3)c2F)cc2cnc(N)nc21 [Example 19, N-(3-(2-amino-8-methyl-7-oxo-7,8-dihydropyrido[2,3-d]pyrimidin-6-yl)-2,4-difluorophenyl)-5-chlorothiophene-2-sulfonamide]"
